Measured values: paper PMC9274090, “Molecular Modeling of ABHD5 Structure and Ligand Recognition” (Frontiers in Molecular Biosciences, 2022)
Where two headings read alike, the source gives them in different places.

Molecular target: T1, Alpha/beta hydrolase domain-containing 5 (ABHD5, CGI-58) (Mus musculus, UniProt Q9DBL9)
T1 construct: ABHD5 fused to C-terminal fragment of G. princeps luciferase
T1 sequence (Q9DBL9 1-351): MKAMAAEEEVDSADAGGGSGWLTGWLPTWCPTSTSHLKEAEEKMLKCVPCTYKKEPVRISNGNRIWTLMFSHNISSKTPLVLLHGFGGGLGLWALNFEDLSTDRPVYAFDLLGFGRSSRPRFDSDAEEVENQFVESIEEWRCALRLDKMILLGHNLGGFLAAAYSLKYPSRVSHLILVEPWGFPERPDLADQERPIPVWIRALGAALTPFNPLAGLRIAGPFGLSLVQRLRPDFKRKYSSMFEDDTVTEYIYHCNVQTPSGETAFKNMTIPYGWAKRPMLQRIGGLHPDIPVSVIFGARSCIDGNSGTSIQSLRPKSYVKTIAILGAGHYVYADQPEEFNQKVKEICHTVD
T1 sequence (Q8BVZ1 1-463 partner): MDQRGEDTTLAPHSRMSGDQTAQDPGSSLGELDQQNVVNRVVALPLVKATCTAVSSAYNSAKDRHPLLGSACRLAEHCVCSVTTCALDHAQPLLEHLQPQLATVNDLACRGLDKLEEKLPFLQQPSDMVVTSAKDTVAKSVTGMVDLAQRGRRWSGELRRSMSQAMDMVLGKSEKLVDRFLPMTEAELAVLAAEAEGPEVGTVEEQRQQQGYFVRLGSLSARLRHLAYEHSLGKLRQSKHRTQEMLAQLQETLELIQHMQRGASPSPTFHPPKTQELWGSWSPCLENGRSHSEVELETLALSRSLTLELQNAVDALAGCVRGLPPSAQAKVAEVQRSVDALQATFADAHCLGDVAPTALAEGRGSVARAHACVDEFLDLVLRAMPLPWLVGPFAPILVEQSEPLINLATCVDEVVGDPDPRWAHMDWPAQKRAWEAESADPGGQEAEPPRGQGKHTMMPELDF
Experiment: split luciferase complementation in cell lysates: ligand-induced dissociation of ABHD5-PLIN5
Assay type: biochemical

Row | IC50 (read-out: IC50) | Compound | IC50
1 | 8.9 µM | COc1ccc(CC(=O)N2CCN(S(=O)(=O)c3ccc4c(c3)OCCCO4)CC2)cc1 [SR3134, SR-03000003134] | –
2 | 15.9 µM | O=C(Cc1cccc(F)c1)N1CCN(S(=O)(=O)c2ccc3c(c2)OCCO3)CC1 [SR3133, SR-03000003133] | –
3 | – | Cc1ccc2c(CC(=O)N3CCN(S(=O)(=O)c4ccc5c(c4)OCCO5)CC3)coc2c1 [SR4559, SR-01000604559] | 3.44 µM
